Experimental data reported in article PMC9618103, “Exploratory toxicology studies of 2,3-substituted imidazo[1,2-a]pyridines with antiparasitic and anti-inflammatory properties” (Toxicology Research, 2022).

Legend:
Wistar rats [1] = assay: Subacute toxicity: serum alanine aminotransferase and alkaline phosphatase activity; type: in vivo; details: serum; rats, p.o., 14 days at 10% of LD50 (CCl4, APAP: once daily, 3 days); mean ± SEM, n = 6
Protocol: (§1) For toxicity tests, acclimatized rats were randomly allocated to 12 groups (n = 12 for the control and n = 6 for the rest groups). […] Meanwhile, the aforementioned vehicles (dose volume 2 mL/kg b.w.) were administered to 3 groups. […] Upon completion of the 14-day treatments and before sample collection, the bladders of animals were emptied by gentle pressure on the lower part of the abdomen to induce urination. The animals were then housed in individual metabolic cages to collect urine for a period of 6 h and then the volume was recorded. Afterward, blood samples were obtained and the serum was separated by centrifugation at 1,620 × g for 10 min at room temperature.
The activities of serum alanine aminotransferase (ALT) and alkaline phosphatase (ALP) were measured with standard kits (RANDOX, Laboratories Ltd, UK).

Wistar rats [2] = assay: Subacute toxicity: glomerular filtration rate (creatinine clearance) and serum creatinine; type: in vivo; details: for Glomerular Filtration Rate / Serum Creatinine: rats, p.o., 14 days at 10% of LD50 (CCl4, APAP: once daily, 3 days), mean ± SEM, n = 6
Protocol: (§2) For toxicity tests, acclimatized rats were randomly allocated to 12 groups (n = 12 for the control and n = 6 for the rest groups). […] Meanwhile, the aforementioned vehicles (dose volume 2 mL/kg b.w.) were administered to 3 groups. […] The animals were then housed in individual metabolic cages to collect urine for a period of 6 h and then the volume was recorded. Afterward, blood samples were obtained and the serum was separated by centrifugation at 1,620 × g for 10 min at room temperature.
(§3) Serum and urinary creatinine were determined by the Jaffe method. With this value, evaluation was made of the fractional excretion of sodium (FES), fractional excretion of potassium (FEP), and fractional excretion of glucose.[30]^,[31] The GFR was calculated from clearance of endogenous creatinine using the conventional equation:where GFR (CCr) is the creatinine clearance rate (mL/min); UCr and SCr are the creatinine concentrations (mg/dL) in urine and serum, respectively; and φ is the urinary flow rate (UFR) (mL/min). To avoid the error from the tubular secretion of creatinine found in males, only female animals were used.

Wistar rats [3] = assay: Subacute toxicity: water and electrolyte balance (osmolality, sodium, potassium, urinary flow); type: in vivo; details: rats, p.o., 14 days at 10% of LD50 (CCl4, APAP: once daily, 3 days); mean ± SEM, n = 6
Protocol: as §2
Osmolality of serum and urine were assessed (in triplicate) by using a vapor pressure osmometer (Wescor 5500, Logan, United States). U/S ratio as well as osmolar (COsm) and free water clearances were calculated via conventional equations:where UOsm and SOsm are the osmolality values (mOsm/Kg) in urine and serum, respectively, and φ is the UFR (mL/min).
(§4) The levels of sodium and potassium were measured in urine and serum using a flame photometer (Corning 400, Medfield, United States). Calculation was made of the clearance, fractional excretion, and filtered load of sodium (FLS), filtered load of potassium (FLP), and filtered load of glucose (FLG) using the conventional equations:where CX is the clearance rate of X (mL/min), CCr is the creatinine clearance rate (mL/min), UX and SX are the […] concentrations of X, respectively, φ is the UFR (mL/min), FEX is the fractional excretion (%) of X, and FLX is the filtered load of X in μEq/min (Na^+ or K^+) or mg/min (glucose).

Wistar rats [4] = assay: Hepatic and renal reactive oxygen species (DCF formation); type: in vivo; details: rats, p.o., 14 days at 10% of LD50 (CCl4, APAP: once daily, 3 days), mean ± SEM, n = 6; for Renal ROS: kidney; for Hepatic ROS: liver
Protocol: as §1
Reactive oxygen species (ROS) were measured by formation of 2′,7′-dichlorofluorescein (DCF). An aliquot of 10 μL (kidney) or 5 μL (liver) of the homogenates was added to 1,940 or 1,945 μL of TRIS:HEPES (18:1) and was incubated in the presence of 50 μL of 2′,7′-dichlorofluorescein diacetate for 1 h at 37 °C. In order to quench the reaction, the mixture was chilled using an ice bath. The fluorescence was measured using a Shimadzu fluorometer (Japan; λex = 488 nm; λem = 525 nm). The results were expressed as nM DCF formed per mg protein/h.[33]
(§5) The protein concentration in homogenates was measured by the Bradford method.[29]

NIH mice = assay: Acute oral toxicity, median lethal dose (LD50); type: in vivo; details: for Category (GHS acute oral toxicity hazard category) / Hazard statement (GHS): based on oral LD50, according to GHS [39]; for Oral LD50: female NIH mice, single oral dose, 14 days observation
Protocol: All treatments were administrated orally (p.o.) according to the scheme mentioned below.
Acute toxicity tests were performed in order to measure the median lethal dose (LD50). After acclimatization, mice were randomly allocated to ten groups (n = 4), including the control group (e.g. water, Tween 80, or PO) and the experimental groups, each with a single dose of one of the IMPYs at 4 levels of dose (0.5, 1.0, 2.0, and 4.0 g/kg b.w.).
Animals were food deprived overnight prior to administration of the chemical compounds or vehicles, and food was returned 4 h after dosing. Animals had access to water ad libitum throughout the study.[27]^,[28]

[5] = tested on: renal secretory pathway of organic anions; assay: Active tubular secretion of organic acids (PAH uptake in kidney cortex slices); type: in vivo, rats; details: for PAH t/m ratio: kidney cortex slices, PAH 1 mM, 1 h, 25 °C, rats, p.o., 14 days at 10% of LD50 (CCl4, APAP: once daily, 3 days), mean ± SEM, n = 6
Protocol: as §1
p-Aminohippuric acid (PAH) was used as an indicator of the renal secretory pathway of organic anions. Kidneys were extracted and immediately submerged in Ringer solution (pH = 7.4 and mOsm = 290 ± 10 mOsm/kg) under constant bubbling with O2/CO2 (95/5%). The kidneys were decapsulated and slices of the kidney cortex were obtained, which were then incubated in Ringer solution containing PAH (1 mM) for 1 h at 25 °C under constant bubbling with O2/CO2 (95/5%). The levels of PAH were quantified with the Bratton-Marshall method and results were expressed as the PAH tissue/medium ratio (PAH t/m ratio).[31]^,[32]

Wistar rats [6] = assay: Hepatic and renal lipid peroxidation (lipid-soluble fluorescence); type: in vivo; details: rats, p.o., 14 days at 10% of LD50 (CCl4, APAP: once daily, 3 days), mean ± SEM, n = 6; for Renal Lipoperoxidation: kidney; for Hepatic Lipoperoxidation: liver
Protocol: as §1
Lipid peroxidation (LPO) was evaluated by the formation of lipid-soluble fluorescence, as previously described. Briefly, kidney and liver tissues were homogenized in 3 and 5 mL of phosphate buffer (0.2 M, pH = 7.4), respectively. A volume of 1 mL (kidney) or 0.8 mL (liver) of the homogenates was added to 7 mL of chloroform-methanol (2:1, v/v), and after 15 s of vortex mixing, the resulting mixture was cooled using an ice bath for 30 min to allow for phase separation. The fluorescence of the organic phase was measured using a Shimadzu fluorometer (Japan; λex = 370 nm; λem = 430 nm), whose sensitivity was adjusted to 140 fluorescence units by using 1 μg/mL of quinine sulfate in 50 mM H2SO4. The results were expressed as relative fluorescence units per milligram of protein.[33]
as §5

Wistar rats [7] = assay: Subacute toxicity: serum and urine glucose, urinary protein excretion; type: in vivo; details: for Filtered Load of Glucose / Fractional Excretion of Glucose / Serum Glucose / Urinary Glucose Excretion / Urinary Protein Excretion: rats, p.o., 14 days at 10% of LD50 (CCl4, APAP: once daily, 3 days), mean ± SEM, n = 6
Protocol: as §2
Serum and urine glucose concentration were calculated using GOD-PAP kits (RANDOX, Laboratories Ltd, UK). Urinary protein was quantified using the Bradford method.[29]
as §3, §4

With `CCOC(=O)c1cn2ccccc2n1` [Compound 1a, ethyl imidazo[1,2-a]pyridine-2-carboxylate] the “Alanine Aminotransferase” value (Wistar rats [1]) was 22.22 ± 1.69 U/L, the “Alkaline Phosphatase” value (Wistar rats [1]) was 93.14 ± 11.91 U/L and the “GFR, change in words” value (Wistar rats [2]; in comparison to the control group) was “lower”. For the same compound, the “Glomerular Filtration Rate” value (Wistar rats [2]) was 0.34 ± 0.14 mL/min, the “Serum Creatinine” value (Wistar rats [2]) was 0.80 ± 0.14 mg/dL and the “Filtered Load of Potassium” value (Wistar rats [3]) was 2.69 ± 1.19 µEq/min. The “Filtered Load of Sodium” value (Wistar rats [3]) was 64.29 ± 26.43 µEq/min, the “Fractional Excretion of Potassium” value (Wistar rats [3]) was 22.26 ± 6.39% and the “Fractional Excretion of Sodium” value (Wistar rats [3]) was 0.74 ± 0.22%. The “Serum Osmolality” value (Wistar rats [3]) was 293.75 ± 1.88 mOsm/kg, the “Serum Potassium” value (Wistar rats [3]) was 6.57 ± 0.32 mEq/L and the “Serum Sodium” value (Wistar rats [3]) was 162.39 ± 5.03 mEq/L. The “U/S Osm ratio” value (Wistar rats [3]) was 3.02 ± 0.25, the “Urinary Flow Rate” value (Wistar rats [3]) was 4.17 ± 1.25 µL/min and the “Urinary Potassium Excretion” value (Wistar rats [3]) was 0.34 ± 0.06 µEq/min. For the same compound, the “Urinary Sodium Excretion” value (Wistar rats [3]) was 0.29 ± 0.08 µEq/min, the “Renal ROS” value (Wistar rats [4]) was 161.18 ± 27.84 nM de DCF/mg protein/h and the “Hepatic ROS” value (Wistar rats [4]) was 317.94 ± 25.65 nM de DCF/mg protein/h. For the same compound, the “Category (GHS acute oral toxicity hazard category)” value (NIH mice) was 5, the “Hazard statement (GHS)” value (NIH mice) was “May be harmful if swallowed” and the “Oral LD50” value (NIH mice) was 3.175 g/kg b.w. For the same compound, the PAH t/m ratio [5] was 2.51 ± 0.13, the “Renal Lipoperoxidation” value (Wistar rats [6]) was 0.28 ± 0.03 URF/mg protein and the “Hepatic Lipoperoxidation” value (Wistar rats [6]) was 0.75 ± 0.04 URF/mg protein. For the same compound, the “FLG (filtered load of glucose), change in words” value (Wistar rats [7]; compared to control values) was “reduced”, the “Filtered Load of Glucose” value (Wistar rats [7]) was 0.39 ± 0.17 mg/min and the “Fractional Excretion of Glucose” value (Wistar rats [7]) was 0.04 ± 0.01%. For the same compound, the “Serum Glucose” value (Wistar rats [7]) was 112.39 ± 4.92 mg/dL, the “Urinary Glucose Excretion” value (Wistar rats [7]) was 96.54 ± 29.03 ng/min and the “Urinary Protein Excretion” value (Wistar rats [7]) was 0.56 ± 0.10 µg/min.

In the case of `O=C(O)c1nc2ccccn2c1[N+](=O)[O-]` [Compound 3b, 3-nitroimidazo[1,2-a]pyridine-2-carboxylic acid], the “Alanine Aminotransferase” value (Wistar rats [1]) is reported as 32.76 ± 5.37 U/L, the “Alkaline Phosphatase” value (Wistar rats [1]) is reported as 56.63 ± 6.67 U/L and the “Glomerular Filtration Rate” value (Wistar rats [2]) is reported as 0.63 ± 0.08 mL/min. For the same compound, the “Serum Creatinine” value (Wistar rats [2]) was 0.57 ± 0.12 mg/dL, the “Filtered Load of Potassium” value (Wistar rats [3]) was 4.15 ± 0.53 µEq/min and the “Filtered Load of Sodium” value (Wistar rats [3]) was 90.75 ± 12.03 µEq/min. For the same compound, the “Fractional Excretion of Potassium” value (Wistar rats [3]) was 11.63 ± 2.44%, the “Fractional Excretion of Sodium” value (Wistar rats [3]) was 0.38 ± 0.05% and the “Serum Osmolality” value (Wistar rats [3]) was 293.74 ± 2.06 mOsm/kg. The “Serum Potassium” value (Wistar rats [3]) was 6.69 ± 0.40 mEq/L, the “Serum Sodium” value (Wistar rats [3]) was 144.61 ± 3.41 mEq/L and the “U/S Osm ratio” value (Wistar rats [3]) was 3.21 ± 0.39. The “Urinary Flow Rate” value (Wistar rats [3]) was 3.75 ± 0.75 µL/min, the “Urinary Potassium Excretion” value (Wistar rats [3]) was 0.43 ± 0.07 µEq/min and the “Urinary Sodium Excretion” value (Wistar rats [3]) was 0.34 ± 0.06 µEq/min. The “Renal ROS” value (Wistar rats [4]) was 184.33 ± 42.31 nM de DCF/mg protein/h, the “Hepatic ROS” value (Wistar rats [4]) was 290.96 ± 40.60 nM de DCF/mg protein/h and the “Category (GHS acute oral toxicity hazard category)” value (NIH mice) was 5. The “Hazard statement (GHS)” value (NIH mice) was “May be harmful if swallowed”, the “Oral LD50” value (NIH mice) was > 2.000 g/kg b.w and the PAH t/m ratio [5] was 1.92 ± 0.23. For the same compound, the “PAH t/m ratio, change in words” value ([5]; versus control (2a also versus Tween 80 and 2b)) was “decreased”, the “Renal Lipoperoxidation” value (Wistar rats [6]) was 0.44 ± 0.09 URF/mg protein and the “Hepatic Lipoperoxidation” value (Wistar rats [6]) was 0.80 ± 0.03 URF/mg protein. For the same compound, the “Filtered Load of Glucose” value (Wistar rats [7]) was 0.74 ± 0.09 mg/min, the “Fractional Excretion of Glucose” value (Wistar rats [7]) was 0.04 ± 3.7E-3% and the “Serum Glucose” value (Wistar rats [7]) was 121.37 ± 8.03 mg/dL. For the same compound, the “Urinary Glucose Excretion” value (Wistar rats [7]) was 262.45 ± 19.41 ng/min and the “Urinary Protein Excretion” value (Wistar rats [7]) was 1.18 ± 0.23 µg/min.
